Test results as given in patent US12195744B2, “Identification of T-cell trafficking genes and uses thereof for increasing infiltration of T-cells into solid tumors” (UNIVERSITY OF IOWA RESEARCH FOUNDATION, priority 2017, dated 2025).
“Also recorded” adds a separate entry of the source.

Columns and labels:
[1] = test system: primary mouse CD8+ T cells; assay: Cell proliferation after in vitro treatment of primary mouse CD8+ T cells; type: cell-based; settings: primary mouse CD8+ T cells treated on day 0, optionally activated, assessed days 1-7
Method: FIG. 10 illustrates the results of in vitro treatment of primary mouse CD8+ T cells with Aak1 inhibitor (iAak1) on cell proliferation. Primary mouse CD8+ T cells were treated on day 0 with the indicated concentration of LP-935509 and optionally activated. Cell proliferation was assessed at days 1, 2, 3, 4, 5, 6, and 7.

A20 tumors = assay: Growth of A20 tumors in mice; type: in vivo
Excerpt: FIG. 15 illustrates the results of Aak1 inhibitor (iAak1) on the growth of A20 tumors in mice. Mice were inoculated with A20 tumor cells. Treatment began ten (10) days post tumor inoculation. All mice received twice weekly IP injections of aPD1. Ten (10) mice received DMSO, and ten (10) mice received iAak1 via oral gavage daily.

[2] = test system: CD8+ T cells in EG7 tumor model; assay: PD-1 expression in tumor-infiltrating versus splenic CD8+ T cells in EG7 tumor model; type: in vivo, mice; settings: oral gavage with twice weekly IP aPD1, vs DMSO, listed as iAak1
Excerpt: (§1) FIG. 13 illustrates the results of Aak1 inhibitor (iAak1) on PD-1 expression in tumor-infiltrating versus splenic CD8+ T cells in an EG7 tumor model. Mice were inoculated with EG7 tumor cells. Treatment began three (3) days post tumor inoculation. All mice received twice weekly IP injections of aPD1. Five (5) mice received DMSO, and five (5) mice received Aak1inh via oral gavage on same days as aPD1 treatment.

EG7 tumors = assay: Growth of EG7 tumors in mice; type: in vivo; settings: oral gavage on same days as twice weekly IP aPD1, from 3 days post inoculation, vs DMSO
Excerpt: as §1, with “12” for “13”, “the growth of EG7 tumors” for “PD-1 expression”, “mice.” for “tumor-infiltrating versus splenic CD8+ T cells in an EG7 tumor model.”, “iAak1” for “Aak1inh”

[3] = test system: primary mouse CD8+ T cells; assay: PD-1 expression after in vitro treatment of primary mouse CD8+ T cells; type: cell-based; settings: activated primary mouse CD8+ T cells, measured at days 6, 7, 8 and 9
Method: FIG. 9 illustrates the results of in vitro treatment of primary mouse CD8+ T cells with Aak1 inhibitor (iAak1 aka LP-935509) on PD-1 expression. Primary mouse CD8+ T cells were treated with the indicated concentration of LP-935509 and PD-1 expression was measured at days 6, 7, 8, and 9.

EG7 cells = assay: Growth of EG7 cells in vitro; type: cell-based; settings: concentrations as high as 2 μM; listed as iAak1
Excerpt: FIG. 14 illustrates the results of Aak1 inhibitor (iAak1) on growth of EG7 cells in vitro.

[4] = test system: primary mouse splenocytes; assay: PD-1 expression on CD8+ T cells after in vitro treatment of primary mouse splenocytes; type: cell-based; settings: mouse splenocytes treated with 2 μM iAak1 in vitro
Method: FIG. 11 illustrates the results of in vitro treatment of primary mouse splenocytes with Aak1 inhibitor (iAak1) on PD-1 expression. Mouse splenocytes were treated with 2 μM concentration of iAak1 and PD-1 expression was assayed in CD8+ T cells.

COc1ncccc1-c1cnn2ccc(N3CCN(C(=O)OC(C)C)CC3)nc12 [LP-935509]
cell proliferation [1]: modest enhancement
cell proliferation ([1]; listed as iAak1): modestly enhances
CD3+ T cell infiltration of the tumor (A20 tumors; A20 tumors, daily oral gavage with twice weekly IP aPD1, vs DMSO): moderate inhibit
A20 tumor growth in vivo (A20 tumors; daily oral gavage with twice weekly IP aPD1, from 10 days post inoculation, vs DMSO, listed as iAak1): increased; also recorded: enhanced
PD-1 expression in CD8+ T cells isolated from tumors [2]: increased
EG7 tumor growth in vivo (EG7 tumors): increased
PD-1 expression [3]: transient increase
EG7 cell proliferation in vitro (EG7 cells): not observed to directly increase; also recorded: did not directly increase
PD-1 expression in CD8+ T cells [4]: modest increase; also recorded: increases
